Experiments:
[1] = Inhibition of the binding of REOB-1 to Nd2O3 by RE-1 short peptide at various concentrations
Protocol: RE-1 short peptides at various concentrations (0 μg/mL, 1 μg/mL, 10 μg/mL, 50 μg/mL, 100 μg/mL, and 500 μg/mL) were incubated with 100 μL Nd2O3 (1 mg/mL) comprising REOB-1 phages at a titer of 10^8 at 37° C. for 2 hr. The resulting precipitate was washed 10 times. The phages binding to Nd2O3 were recovered. 5000 μg/mL of AP-1 short peptide was treated according to the same procedure as described above, as a control.

[2] = Dissociation of FITC-RE-1 from UCP over time; assay type: binding; conditions: after 48 hr, 37° C., shaking
Protocol: (§1) 250 μg FITC-RE-1 was thoroughly mixed with 500 μg UCN. The excess and unbound polypeptides were washed off. Then, the mixture was divided into five aliquots. The aliquots were gently shaked on a shaking table at 37° C. The amount of FITC-RE-1 dissociated in the supernatants was measured by using a fluorescence spectrophotometer at different time points (0 hr, 2 hr, 12 hr, 24 hr, and 48 hr).
The process described above was repeated except that 50 μg FITC-RE-1 and 500 μg UCP were used. The amount of FITC-RE-1 dissociated in the supernatants was measured.

LC3 II in HeLa cells = experiment: Western blotting of LC3 in HeLa cells; assay type: cell-based
Protocol: (§2) Western blotting is performed as follows: After an incubation of 24 h, the cells are collected and lysed with lysis buffer (purchased from Beyotime Biotechnology, China). The lysate is boiled in boiling water for 10 min, subjected to 15% SDS-PAGE, and then transferred to nylon membrane (purchased from Amersham Inc.) by a wet transfer. In the Western blotting, Anti-LC3 (Light Chain 3 Protein Antibody, purchased from Novus Inc., Catalog #: NB 100-2220) is used as primary antibody; GAPDH (purchased from Millipore Inc.) is used as internal reference; and Horseradish peroxidase (HRP) conjugated goat anti-rabbit IgG (H+L) (Goat Anti-Rabbit IgG (H+L), HRP Conjugate) (purchased from Promega Inc.) is used as secondary antibody.
HeLa cells were inoculated into a 24-well cell culturing plate at a density of about 3-5×10^4 cells/well, and cultured overnight for further use. At first, the medium was replaced with fresh DMEM medium, and then 100 μg/mL UCN or UCN+RE-1 was added. An equal volume of PBS was used as blank. A mixture of 100 μg/mL UCN and 10 mg/mL PEG was used as negative control. 100 mM trehalose was used as positive control. Then, western blotting assay was performed.
HeLa cells were inoculated into a 24-well cell culturing plate at a density of about 3-5×10^4 cells/well, and cultured overnight for further use. At first, the medium was replaced with fresh DMEM medium, and then 100 μg/mL UCP or UCP+RE-1 was added. An equal volume of PBS was used as blank. A mixture of 100 μg/mL UCP+AP-1 and a mixture of 400 μg/mL TiO2+AP-1 were used as negative control. 400 μg/mL TiO2 was used as positive control. Then, western blotting assay was performed.

[3] = Sedimentation / suspension time-dynamics curve of UCN (UV 500 nm); assay type: physicochemical; conditions: standing for 120 min; UCN with or without RE-1 coating
Protocol: 3 mg of UCN was mixed with 1.5 mg of RE-1 or its analogues RE-2, RE-3, or RE-5 as well as PEG, and the binding between them was performed according to a binding method. The excess and unbound RE-1 was washed off. The resultant precipitate was resuspended in 3 mL water, sonicated for 1 min, and then placed into a UV detection cell (X72053, Alpha Laboratories Ltd, UK). Observation was made using a UV spectrophotometer (DU-640, Beckman, USA) at an absorption wavelength of 500 nm for 120 min to obtain a time-dynamics curve.

[4] = Competitive inhibition of REOB-1 phage binding to Nd2O3 by polypeptides (IC50); conditions: 100 μg Nd2O3, REOB-1 phages at a titer of 108, 2 hr incubation; read-out: IC50 (μM)* of polypeptides competitively inhibiting the binding of REOB-1 phages to Nd2O3 nanoparticles
Protocol: 100 μg Nd2O3 was mixed with the polypeptides, RE-1, AP-1, RE-2, RE-3, RE-4, RE-5, RE-6, RE-7, RE-8, RE-9, RE-10, etc., respectively. To the mixture, REOB-1 phages at a titer of 108 were added. After 2 hr of incubation, the number of REOB-1 phages binding to Nd2O3 was measured. IC50 value indicated the relative activity of various polypeptides competitively inhibiting the binding of REOB-1 phages to Nd2O3 nanoparticles. The polypeptide RE-1 and its analogues had different binding ability to Nd2O3.

[5] = Dissociation of FITC-RE-1 from UCN over time; assay type: binding; conditions: after 48 h, 37° C., shaking
Protocol: as §1

[6] = test system: LC3 type II in mice liver; experiment: Western blotting of LC3 in mice livers after tail vein injection; assay type: in vivo; conditions: 300 μg (15 mg/kg) tail vein, 24 hr
Protocol: as §2
Balb/c mice (purchased from SLAC Laboratory Animal (Shanghai, China), 6 weeks old, and weighed 20 g when used) were bred in a sterile housing, and then 300 μg (dosage: 15 mg/kg) UCN, UCN+PEG (containing 10 mg PEG), UCN+RE-1, UCP, UCP+RE-1, or UCP+AP-1 was injected through tail vein. An equal volume of normal saline was injected as a control. After 24 hr, the livers of the mice were removed and subjected to western blotting assay.

HeLa cells = experiment: Diffusibility / adherence on coverslip with cells facing upward or downward; assay type: cell-based
Protocol: HeLa cells were cultured on a coverslip (22 mm×22 mm), which was then placed into a 6-well plate with the cells facing upward or downward, and the coverslip was supported by a sterilized glass cube (2 mm×2 mm×2 mm). Then, 4 mL DMEM medium (Gibco) containing the rare-earth upconversion nanophosphors (UCN, UCP) with or without RE-1 coating was slowly poured into the 6-well plate, such that the cells were fully immersed in the medium, and the coverslip is just located at the middle of the height of the liquid. The cells were placed into a cell incubator at 37° C. for 2 hr, and then washed with PBS 3 times. The UCNs adhered to the surfaces of the cells were observed under a fluorescence microscope (Olympus IX71, Olympus, Japan) equipped with a 980-nm infrared laser (MDL-980 nm 1 W, Changchun New Industries Optoelectronics Tech. Co., Ltd, China).

Sequence: ACTARSPWICG [RE-1, RE-0 with terminal amino acids A and G added]
- dependence of inhibition of REOB-1 binding to Nd2O3 on RE-1 concentration ([1]; 0-500 μg/mL RE-1): concentration-dependent
- inhibition of the binding of REOB-1 to Nd2O3 ([1]; RE-1 concentration greater than 10 μg/mL, REOB-1 titer 10^8, 37° C., 2 hr): nearly completely inhibited
- dissociation from UCP [2]: less than 1.5%
- effect of RE-1 coating of UCN and UCP on LC3 II (LC3 II in HeLa cells; 100 μg/mL UCN+RE-1 or UCP+RE-1): significantly prevented the increase of LC3 II
- inhibition of cell autophagy induced by TiO2 (LC3 II in HeLa cells; 400 μg/mL TiO2): could not inhibit
- suspension / sedimentation of UCN in water [3]: still in suspension
- IC50 [4]: 3.01 ± 0.14 µM
- dissociation from UCN [5]: less than 0.7%
- effect of RE-1 coating of UCN and UCP on LC3 type II in mice liver [6]: significantly prevented the increase of LC3 type II
- amount of nanophosphors (UCN, UCP) coated with RE-1 adhered to the cell surfaces (HeLa cells; cell-facing-upward group, 37° C., 2 hr): significantly reduced
- diffusibility of the rare-earth upconversion nanophosphors (UCN, UCP) in solution (HeLa cells; cells facing upward versus downward): reduced the diffusibility

Source: US9540418B2, “Polypeptide specifically binding to rare earth nanoparticles and use thereof” (University of Science and Technology of China, priority 2012, dated 2017)
